According to patent US20250170103A1, “4-(6-OXO-2-(TRIFLUOROMETHYL)-3,6-DIHYDROCHROMENO[7,8-D]IMIDAZOL-8-YL)BENZONITRILE FOR USE IN THE TREATMENT OF DISEASES AND CONDITIONS ASSOCIATED WITH MOVEMENT DISORDERS” (OnTrack Therapeutics Limited, priority 2022, published 2025):

Legend:
[1] = test system: dopaminergic TH-positive neurons injured with MPP+; experiment: MPP+ in vitro Parkinson's disease model, TH/αSyn plate at 48 hours (α-syn, DA neurons, neurites); assay type: cell-based, rat; settings: MPP+ 4 μM
Experimental: (§1) The ventral portion of the mesencephalic flexure, a region of the developing brain rich in dopaminergic neurons, was used for the cell preparations.
(§2) (solution at a final concentration of 0.05% trypsin and 0.02% EDTA). […] Cells were then mechanically dissociated by 3 passages through a 10 ml pipette. Cells were then centrifuged at 180×g for 10 min at +4° C. on a layer of BSA (3.5%) in L15 medium. […] Viable cells were counted in a Neubauer cytometer using the trypan blue exclusion test. […] Half of the medium was changed every 2 days with fresh medium.
The cells were washed twice in PBS, and then permeabilized.

5XFAD mice = settings: repeated administration, WO2020/033604; cited from earlier work
[2] = test system: dopaminergic TH-positive neurons injured with MPP+; experiment: MPP+ in vitro Parkinson's disease model, mitochondrial ROS in TH neurons at 4 hours (TH/ROS plate); assay type: cell-based, rat; settings: CF3CN 10 nm to 1 μm, 1 h pre-incubation, MPP+ 4 μM, FIG. 1
Experimental: as §1, §2

[3] = test system: primary SOD1 transgenic spinal cord motor neurons injured with glutamate; experiment: In vitro ALS model: glutamate-injured primary spinal motor neurons (MAP2/TDP43, 24 hours); assay type: cell-based, rat; settings: for number of motor neurons: FIG. 5
Experimental: Cells were mechanically dissociated by three forced passages through the tip of a 10-ml pipette. Cells were then centrifuged at 515×g for 10 min at 4° C. […] Viable cells were counted in a Neubauer cytometer, using the trypan blue exclusion test. […] The medium was changed every 2 days.

| Molecule | level of neurites ([1]; CF3CN 1 nm to 1 μm, FIG. 4) | number of DA neurons ([1]; CF3CN 10 and 100 nm, FIG. 3) | level of α-syn ([1]; all dose levels (1 nM to 5 μM) except 10 μm, FIG. 2) | synaptic loss (5XFAD mice) | reduction of mitochondrial stress (ROS in TH(+) neurons) [2] | neurite network ([3]; CF3CN 10 and 100 nm, glutamate 5 μM 20 min, 24 hours, compared to the control, FIG. 6) | level of extranuclear TDP-43 versus the positive controls ([3]; CF3CN 10 nm and 100 nm, compared with Riluzole 5 μM and BDNF 50 ng/ml) | number of motor neurons ([3]; CF3CN 10 nm, 100 nm and 1 μm, glutamate 5 μM 20 min, 24 hours, compared to the control) | number of extranuclear TDP-43 ([3]; CF3CN all concentrations except the highest and the lowest (10 nM to 5 μM), glutamate 5 μM 20 min, 24 hours, FIG. 7) | number of motor neurons ([3]; positive controls: Riluzole 5 μM, BDNF 50 ng/ml, glutamate 5 μM 20 min, 24 hours, compared to the control) |
| --- | --- | --- | --- | --- | --- | --- | --- | --- | --- | --- |
| N#Cc1ccc(-c2cc(=O)c3ccc4[nH]c(C(F)(F)F)nc4c3o2)cc1 [CF3CN, 4-(6-oxo-2-(trifluoromethyl)-3,6-dihydrochromeno[7,8-d]imidazol-8-yl)benzonitrile] | increase the level of neurites | increase the number of DA neurons | statistically significantly reduce the level of α-syn | prevent synaptic loss | statistically significantly reduced ROS | increased the neurite network in a statistically significant manner | greater decrease in the level of extranuclear TDP-43 than the positive controls | statistically significant increase in the number of motor neurons | decreased the number of extranuclear TDP-43 in a statistically significant manner |  |
| BDNF: classical neurotrophic factor, used as an endogenous activator of the signalling pathway under investigation (protein, UniProt P23560 19-247, looked up) Neurotrophic factor BDNF …: APMKEANIRGQGGLAYPGVRTHGTLESVNGPKAGSRGLTSLADTFEHVIEELLDEDQKVRPNEENNKDADLYTSRVMLSSQVPLEPPLLFLLEEYKNYLDAANMSMRVRRHSDPARRGELSVCDSISEWVTAADKKTAVDMSGGTVTVLEKVPVSKGQLKQYFYETKCNPMGYTKEGCRGIDKRHWNSQCRTTQSYVRALTMDSKKRIGWRFIRIDTSCVCTLTIKRGR |  |  |  |  |  |  |  |  |  | statistically significant increase in the number of motor neurons |
